Target: T1, human DGAT2 (Homo sapiens, UniProt Q96PD7)
T1 construct: FLAG (DYKDDDDK); made in house; host or cells: Sf-21 insect cells (BacPAK baculovirus system); membrane fraction used
T1 sequence (Q96PD7 1-388): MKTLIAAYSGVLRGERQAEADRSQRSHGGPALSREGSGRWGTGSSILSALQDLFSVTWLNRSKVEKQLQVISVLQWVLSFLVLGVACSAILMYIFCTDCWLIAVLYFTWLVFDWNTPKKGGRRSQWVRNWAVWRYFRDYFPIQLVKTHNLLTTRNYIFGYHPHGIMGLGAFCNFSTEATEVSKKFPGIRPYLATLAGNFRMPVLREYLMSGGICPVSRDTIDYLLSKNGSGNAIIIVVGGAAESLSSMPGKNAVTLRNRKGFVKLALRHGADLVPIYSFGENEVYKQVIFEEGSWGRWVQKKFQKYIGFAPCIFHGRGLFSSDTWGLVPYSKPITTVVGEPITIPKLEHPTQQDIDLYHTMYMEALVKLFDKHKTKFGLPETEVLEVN
Experiment: DGAT2 enzyme activity inhibition, Phospholipid FlashPlate SPA
Assay type: biochemical
Conditions: recombinant human DGAT2 membrane protein from Sf-21 cells; inhibition of [14C]-TG production; 37° C.
Method in brief: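 Sf-21 membranes expressing recombinant human DGAT2 (2 μg) preincubated with compound (3 nM–10 μM, 1% DMSO) and 50 μM 1,2 sn-oleoyl glycerol, 20 min at 37 °C, then 1 μM [14C]oleoyl-CoA for 15 min. [14C]-TG counted by SPA; inhibition as % of untreated.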

IC50 [nM] | SMILES
550 | CCOc1ccccc1O[C@@H]1CCCN(c2cncc(Nc3cc(C(C)(C)COCCOC)no3)n2)C1 [Example 8, (R)—N-(6-(3-(2-ethoxyphenoxy)piperidin-1-yl)pyrazin-2-yl)-3-(1-(2-methoxyethoxy)-2-methylpropan-2-yl)isooxazol-5-amine]
8800 | CCOc1ccccc1O[C@@H]1CCCN(c2cncc(Nc3nc4ccc(S(C)(=O)=O)cc4s3)n2)C1 [Example 7, (R)—N-(6-(3-(2-ethoxyphenoxy)piperidin-1-yl)pyrazin-2-yl)-6-(methanesulfonyl)benzo[d]thiazol-2-amine]
800 | CCOc1ccccc1O[C@@H]1CCCN(c2cncc(Nc3nccc(N4CCC[C@@H](/C=C/C(=O)O)C4)n3)n2)C1 [Example 129, (E)-3-((S)-1-(2-((6-((R)-3-(2-ethoxyphenoxy)piperidin-1-yl)pyrazin-2-yl)amino)pyrimidin-4-yl)piperidin-3-yl)acrylic Acid]
87 | CCOc1cccnc1O[C@@H]1CCCN(c2cncc(Nc3cccc(Oc4cccc(CC(=O)O)c4)n3)n2)C1 [Example 96, (R)-2-(3-((6-((6-(3-((3-ethoxypyridin-2-yl)oxy)piperidin-1-yl)pyrazin-2-yl)amino)pyridin-2-yl)oxy)phenyl)acetic Acid]
6100 | CCOc1ccccc1O[C@@H]1CCCN(c2cncc(Nc3nccc(N4CCCC(C)(C(=O)O)C4)n3)n2)C1 (stereo partly drawn) [Example 122, 1-(2-((6-((R)-3-(2-ethoxyphenoxy)piperidin-1-yl)pyrazin-2-yl)amino)pyrimidin-4-yl)-3-methylpiperidine-3-carboxylic Acid]

— US12630528B2, “Amino aryl derivative useful as diacylglycerol acyltransferase 2 inhibitor and use thereof” (LG CHEM, LTD., priority 2019, dated 2026)
